# Measurements: PubChem BioAssay (NCI)
#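 Interpolation was linear, between the two tested concentrations surrounding the appropriate level; five concentrations were tested over 48 hours in 96-well plates. Definition used: TGI = concentration required for complete inhibition of growth.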
# How the values were obtained:
# Test in all cases: growth of human tumour cells (NCI), 48 h
# U251 CNS = system: U251 CNS
# DU-145 prostate = system: DU-145 prostate
# PC-3 prostate = system: PC-3 prostate
# SW-620 colon = system: SW-620 colon
# MALME-3M melanoma = system: MALME-3M melanoma
# A498 renal = system: A498 renal
# HCC-2998 colon = system: HCC-2998 colon
# NCI/ADR-RES ovarian = system: NCI/ADR-RES ovarian
# NCI-H522 lung = system: NCI-H522 lung
# SF-539 CNS = system: SF-539 CNS
# A549 NSCLC = system: A549 NSCLC
# MCF7 breast = system: MCF7 breast
# SK-OV-3 ovarian = system: SK-OV-3 ovarian
# MDA-N = system: MDA-N
# UACC-62 melanoma = system: UACC-62 melanoma
# NCI-H226 lung = system: NCI-H226 lung
# IGROV1 ovarian = system: IGROV1 ovarian
# MDA-MB-231 breast = system: MDA-MB-231 breast
# SK-MEL-2 melanoma = system: SK-MEL-2 melanoma
# OVCAR-8 ovarian = system: OVCAR-8 ovarian
# CCRF-CEM leukemia = system: CCRF-CEM leukemia
# SK-MEL-5 melanoma = system: SK-MEL-5 melanoma
# HOP-62 NSCLC = system: HOP-62 NSCLC
# SR leukemia = system: SR leukemia
# OVCAR-5 ovarian = system: OVCAR-5 ovarian
# HCT-15 colon = system: HCT-15 colon
# OVCAR-4 ovarian = system: OVCAR-4 ovarian
# HOP-92 NSCLC = system: HOP-92 NSCLC
# SNB-75 CNS = system: SNB-75 CNS
# NCI-H460 lung = system: NCI-H460 lung
# CAKI-1 renal = system: CAKI-1 renal
# UACC-257 melanoma = system: UACC-257 melanoma
# EKVX NSCLC = system: EKVX NSCLC
# HS 578T breast = system: HS 578T breast
# HT29 colon = system: HT29 colon
# UO-31 renal = system: UO-31 renal
# SNB-19 CNS = system: SNB-19 CNS
# HL-60(TB) leukemia = system: HL-60(TB) leukemia
# LOX IMVI melanoma = system: LOX IMVI melanoma
# MDA-MB-435 = system: MDA-MB-435
# M14 melanoma = system: M14 melanoma
# 786-0 renal = system: 786-0 renal
# RXF 393 renal = system: RXF 393 renal
# T-47D breast = system: T-47D breast
# NCI-H23 lung = system: NCI-H23 lung
# HCT-116 colon = system: HCT-116 colon
# ACHN renal = system: ACHN renal
# TK-10 renal = system: TK-10 renal
# SN12C renal = system: SN12C renal
# SF-268 CNS = system: SF-268 CNS
# SF-295 CNS = system: SF-295 CNS
# K-562 leukemia = system: K-562 leukemia
# MOLT-4 leukemia = system: MOLT-4 leukemia
# SK-MEL-28 melanoma = system: SK-MEL-28 melanoma
# OVCAR-3 ovarian = system: OVCAR-3 ovarian
# COLO 205 colon = system: COLO 205 colon
# BT-549 breast = system: BT-549 breast
# RPMI-8226 leukemia = system: RPMI-8226 leukemia
# KM12 colon = system: KM12 colon
smiles,measurement,setting,value
NC(=O)c1ccc(NCC2=CC(=O)C=CC2=O)cc1,TGI,U251 CNS,45.1 µM
same,TGI,DU-145 prostate,> 100 µM
same,TGI,PC-3 prostate,32.7 µM
same,TGI,SW-620 colon,44 µM
same,TGI,MALME-3M melanoma,36.6 µM
same,TGI,A498 renal,> 100 µM
same,TGI,HCC-2998 colon,> 100 µM
same,TGI,NCI/ADR-RES ovarian,71.4 µM
same,TGI,NCI-H522 lung,47.5 µM
same,TGI,SF-539 CNS,32.9 µM
same,TGI,A549 NSCLC,> 100 µM
same,TGI,MCF7 breast,59.1 µM
same,TGI,SK-OV-3 ovarian,> 100 µM
same,TGI,MDA-N,31.8 µM
same,TGI,UACC-62 melanoma,35.6 µM
same,TGI,NCI-H226 lung,> 100 µM
same,TGI,IGROV1 ovarian,44.7 µM
same,TGI,MDA-MB-231 breast,37.5 µM
same,TGI,SK-MEL-2 melanoma,39.8 µM
same,TGI,OVCAR-8 ovarian,50.7 µM
same,TGI,CCRF-CEM leukemia,50.8 µM
same,TGI,SK-MEL-5 melanoma,30.2 µM
same,TGI,HOP-62 NSCLC,> 100 µM
same,TGI,SR leukemia,56.4 µM
same,TGI,OVCAR-5 ovarian,52.9 µM
same,TGI,HCT-15 colon,38.3 µM
same,TGI,OVCAR-4 ovarian,42.4 µM
same,TGI,HOP-92 NSCLC,40.7 µM
same,TGI,SNB-75 CNS,36.2 µM
same,TGI,NCI-H460 lung,> 100 µM
same,TGI,CAKI-1 renal,34.2 µM
same,TGI,UACC-257 melanoma,43.1 µM
same,TGI,EKVX NSCLC,34.3 µM
same,TGI,HS 578T breast,75.2 µM
same,TGI,HT29 colon,47.7 µM
same,TGI,UO-31 renal,31.8 µM
same,TGI,SNB-19 CNS,> 100 µM
same,TGI,HL-60(TB) leukemia,30.3 µM
same,TGI,LOX IMVI melanoma,32.5 µM
same,TGI,MDA-MB-435,32.1 µM
same,TGI,M14 melanoma,31.3 µM
same,TGI,786-0 renal,38.5 µM
same,TGI,RXF 393 renal,41 µM
same,TGI,T-47D breast,68.9 µM
same,TGI,NCI-H23 lung,51.7 µM
same,TGI,HCT-116 colon,36.1 µM
same,TGI,ACHN renal,31.6 µM
same,TGI,TK-10 renal,32.7 µM
same,TGI,SN12C renal,41.3 µM
same,TGI,SF-268 CNS,50.9 µM
same,TGI,SF-295 CNS,> 100 µM
same,TGI,K-562 leukemia,49.1 µM
same,TGI,MOLT-4 leukemia,67.9 µM
same,TGI,SK-MEL-28 melanoma,36.9 µM
same,TGI,OVCAR-3 ovarian,31 µM
same,TGI,COLO 205 colon,36.2 µM
same,TGI,BT-549 breast,36.2 µM
same,TGI,RPMI-8226 leukemia,54.6 µM
same,TGI,KM12 colon,> 100 µM
O=c1oc2ccccc2c(O)c1/C=N\c1nc(-c2ccc(O)c(O)c2)cs1,TGI,U251 CNS,17.3 µM
same,TGI,DU-145 prostate,17.9 µM
same,TGI,PC-3 prostate,10.6 µM
same,TGI,SW-620 colon,9.64 µM
same,TGI,MALME-3M melanoma,9.17 µM
same,TGI,A498 renal,> 46.7 µM
same,TGI,HCC-2998 colon,16.3 µM
same,TGI,NCI/ADR-RES ovarian,> 72.2 µM
same,TGI,NCI-H522 lung,5.29 µM
same,TGI,SF-539 CNS,12.5 µM
same,TGI,A549 NSCLC,26.6 µM
same,TGI,MCF7 breast,17.4 µM
same,TGI,SK-OV-3 ovarian,21.4 µM
same,TGI,MDA-N,18.8 µM
same,TGI,UACC-62 melanoma,16.9 µM
same,TGI,NCI-H226 lung,42.2 µM
same,TGI,IGROV1 ovarian,23.9 µM
same,TGI,MDA-MB-231 breast,18.7 µM
same,TGI,SK-MEL-2 melanoma,7.04 µM
same,TGI,OVCAR-8 ovarian,> 100 µM
same,TGI,CCRF-CEM leukemia,4.58 µM
same,TGI,SK-MEL-5 melanoma,16.9 µM
same,TGI,HOP-62 NSCLC,31.2 µM
same,TGI,SR leukemia,4.43 µM
same,TGI,OVCAR-5 ovarian,31.9 µM
same,TGI,HCT-15 colon,14.9 µM
same,TGI,OVCAR-4 ovarian,27.5 µM
same,TGI,HOP-92 NSCLC,28.5 µM
same,TGI,SNB-75 CNS,15.4 µM
same,TGI,NCI-H460 lung,14.3 µM
same,TGI,CAKI-1 renal,16.5 µM
same,TGI,UACC-257 melanoma,10.3 µM
same,TGI,EKVX NSCLC,28.4 µM
same,TGI,HS 578T breast,> 80.8 µM
same,TGI,HT29 colon,23.6 µM
same,TGI,UO-31 renal,9.24 µM
same,TGI,SNB-19 CNS,39.1 µM
same,TGI,HL-60(TB) leukemia,8.31 µM
same,TGI,LOX IMVI melanoma,14.7 µM
same,TGI,MDA-MB-435,20.4 µM
same,TGI,M14 melanoma,10.3 µM
same,TGI,786-0 renal,10.2 µM
same,TGI,RXF 393 renal,18.1 µM
same,TGI,T-47D breast,32 µM
same,TGI,NCI-H23 lung,9.87 µM
same,TGI,HCT-116 colon,7.61 µM
same,TGI,ACHN renal,9.77 µM
same,TGI,TK-10 renal,10.7 µM
same,TGI,SN12C renal,15.6 µM
same,TGI,SF-268 CNS,22.1 µM
same,TGI,SF-295 CNS,> 100 µM
same,TGI,K-562 leukemia,10.4 µM
same,TGI,MOLT-4 leukemia,3.34 µM
same,TGI,SK-MEL-28 melanoma,24.1 µM
same,TGI,OVCAR-3 ovarian,5.94 µM
same,TGI,COLO 205 colon,6.76 µM
same,TGI,BT-549 breast,25.8 µM
same,TGI,RPMI-8226 leukemia,5.3 µM
same,TGI,KM12 colon,29.6 µM
